# Assay results reported in patent US10577363B2, “Substituted piperidine compounds” (EPIZYME, INC., priority 2014, dated 2020).
# Target: SMYD3 (Homo sapiens (Human), UniProt Q9H7B4)
# Experiment: SMYD3 biochemical assay (SPA, 3H-SAM methylation of MEKK2 protein substrate)
# Details: read-out: SMYD3 Biochem IC50 (μM)*
# Summary of the method: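 Full-length native human SMYD3 (E. coli-expressed, tags removed) preincubated with compounds 30 min at room temperature, then reaction started with 3H-SAM and GST-tagged MEKK2 protein in 25 mM Tris-Cl pH 8.0, 1 mM TCEP, 0.005% BSG, 0.005% Tween 20. Quenched with unlabelled SAM (100 uM final); 3H-MEKK2 counted by SPA.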
row,SMILES,IC50 [µM]
1,"C[C@@H]1CC(NC(=O)c2cc(C3CC3)on2)CCN1C(=O)C1CC12CCNCC2 (stereo partly drawn) [compound 136, 5-cyclopropyl-N-((2R)-2-methyl-1-(6-azaspiro[2.5]octane-1-carbonyl)piperidin-4-yl)isoxazole-3-carboxamide]",0.759
2,"C[C@@H]1CC(NC(=O)c2cc(C3CC3)on2)CCN1C(=O)[C@H]1CC[C@H](O)CC1 (stereo partly drawn) [compound 137, 5-cyclopropyl-N-((2R)-1-((1r,4R)-4-hydroxycyclohexane-1-carbonyl)-2-methylpiperidin-4-yl)isoxazole-3-carboxamide]",41.2
3,"C[C@H]1CC(NC(=O)c2cc(C3CC3)on2)CCN1C[C@H]1CC[C@H](N)CC1 (stereo partly drawn) [compound 138, N-((2S)-1-(((1r,4S)-4-aminocyclohexyl)methyl)-2-methylpiperidin-4-yl)-5-cyclopropylisoxazole-3-carboxamide]",4.31
4,"C[C@@H]1CC(NC(=O)c2cc(C3CC3)on2)CCN1C(=O)[C@H]1CC[C@H](N(C)C)CC1 (stereo partly drawn) [compound 139, 5-cyclopropyl-N-((2R)-1-((1r,4R)-4-(dimethylamino)cyclohexane-1-carbonyl)-2-methylpiperidin-4-yl)isoxazole-3-carboxamide]",1.65
5,"CC1CNCCC1CC(=O)N1CCC(NC(=O)c2cc(C3CC3)on2)C[C@H]1C (stereo partly drawn) [compound 140, 5-cyclopropyl-N-((2R)-2-methyl-1-(2-(3-methylpiperidin-4-yl)acetyl)piperidin-4-yl)isoxazole-3-carboxamide]",0.842
6,"CC1CC(CC(=O)N2CCC(NC(=O)c3cc(C4CC4)on3)C[C@@H]2C)CCN1 (stereo partly drawn) [compound 141, 5-cyclopropyl-N-((2S)-2-methyl-1-(2-(2-methylpiperidin-4-yl)acetyl)piperidin-4-yl)isoxazole-3-carboxamide]",3.53
7,"C[C@H]1CC(NC(=O)c2cc(C3CC3)on2)CCN1C(=O)CCCN (stereo partly drawn) [compound 142, N-((2S)-1-(4-aminobutanoyl)-2-methylpiperidin-4-yl)-5-cyclopropylisoxazole-3-carboxamide]",3.65
8,"C[C@@H]1CC(NC(=O)c2cc(C3CC3)on2)CCN1C(=O)[C@H]1CCC[C@@H](N)C1 (stereo partly drawn) [compound 143, N-((2R)-1-((1S,3R)-3-aminocyclohexane-1-carbonyl)-2-methylpiperidin-4-yl)-5-cyclopropylisoxazole-3-carboxamide]",1.99
9,"C[C@@H]1CC(NC(=O)c2cc(C3CC3)on2)CCN1C(=O)C1CC2(CCNC2)C1 (stereo partly drawn) [compound 144, 5-cyclopropyl-N-((2R)-2-methyl-1-(6-azaspiro[3.4]octane-2-carbonyl)piperidin-4-yl)isoxazole-3-carboxamide]",0.546
10,"N[C@@H]1CC[C@@H](C(=O)N2CCC(NC(=O)c3cc(C4CC4)on3)CC2)C1 [compound 145, N-(1-((1R,3R)-3-aminocyclopentane-1-carbonyl)piperidin-4-yl)-5-cyclopropylisoxazole-3-carboxamide]",5.98
11,"C[C@@H]1CN(C(=O)[C@H]2CC[C@H](N)CC2)CC[C@H]1NC(=O)c1cc(C2CC2)on1 [compound 146, N-((3R,4R)-1-((1r,4R)-4-aminocyclohexane-1-carbonyl)-3-methylpiperidin-4-yl)-5-cyclopropylisoxazole-3-carboxamide]",2.28
12,"C[C@@H]1CN(C(=O)CC2CCNCC2)CC[C@H]1NC(=O)c1cc(C2CC2)on1 [compound 147, 5-cyclopropyl-N-((3R,4R)-3-methyl-1-(2-(piperidin-4-yl)acetyl)piperidin-4-yl)isoxazole-3-carboxamide]",1.53
13,"CC1(NC(=O)c2cc(C3CC3)on2)CCN(C(=O)[C@H]2CC[C@H](N)CC2)CC1 [compound 150, N-(1-((1r,4r)-4-aminocyclohexane-1-carbonyl)-4-methylpiperidin-4-yl)-5-cyclopropylisoxazole-3-carboxamide]",0.91
14,"CCOC(=O)C1CN(C(=O)[C@H]2CC[C@H](N)CC2)CCC1NC(=O)c1cc(C2CC2)on1 (some centres unmarked) [compound 151, ethyl 1-((1r,4r)-4-aminocyclohexane-1-carbonyl)-4-(5-cyclopropylisoxazole-3-carboxamido)piperidine-3-carboxylate]",3.54
15,"N[C@H]1CC[C@H](C(=O)N2CCC(NC(=O)c3cc(C4CC4)on3)C(F)(F)C2)CC1 (some centres unmarked) [compound 152, N-(1-((1r,4r)-4-aminocyclohexane-1-carbonyl)-3,3-difluoropiperidin-4-yl)-5-cyclopropylisoxazole-3-carboxamide]",2.25
16,"CC1(NC(=O)c2cc(C3CC3)on2)CCN(C(=O)CC2CCNCC2)CC1 [compound 153, 5-cyclopropyl-N-(4-methyl-1-(2-(piperidin-4-yl)acetyl)piperidin-4-yl)isoxazole-3-carboxamide]",0.848
17,"O=C(NC1CCN(C(=O)CC2CCNCC2)CC1(F)F)c1cc(C2CC2)on1 (centres unmarked) [compound 154, 5-cyclopropyl-N-(3,3-difluoro-1-(2-(piperidin-4-yl)acetyl)piperidin-4-yl)isoxazole-3-carboxamide]",1.56
18,"CC1(C)CN(C(=O)[C@H]2CC[C@H](N)CC2)CCC1NC(=O)c1cc(C2CC2)on1 (some centres unmarked) [compound 155, N-(1-((1r,4r)-4-aminocyclohexane-1-carbonyl)-3,3-dimethylpiperidin-4-yl)-5-cyclopropylisoxazole-3-carboxamide]",0.575

row,SMILES,IC50 [µM]
1,"CC1(C)CN(C(=O)CC2CCNCC2)CCC1NC(=O)c1cc(C2CC2)on1 (centres unmarked) [compound 157, 5-cyclopropyl-N-(3,3-dimethyl-1-(2-(piperidin-4-yl)acetyl)piperidin-4-yl)isoxazole-3-carboxamide]",0.521
2,"CC1(NC(=O)c2cc(C3CC3)on2)CCN(C(=O)CCCN)CC1 [compound 158, N-(1-(4-aminobutanoyl)-4-methylpiperidin-4-yl)-5-cyclopropylisoxazole-3-carboxamide]",7.34
3,"CCOC(=O)[C@@H]1CC(NC(=O)c2cc(C3CC3)on2)CCN1C(=O)CCCN (stereo partly drawn) [compound 159, ethyl (2S)-1-(4-aminobutanoyl)-4-(5-cyclopropylisoxazole-3-carboxamido)piperidine-2-carboxylate]",25.2
4,"CCOC(=O)C1CN(C(=O)CCCN)CCC1NC(=O)c1cc(C2CC2)on1 (centres unmarked) [compound 160, ethyl 1-(4-aminobutanoyl)-4-(5-cyclopropylisoxazole-3-carboxamido)piperidine-3-carboxylate]",2.23
5,"CC1(C)CN(C(=O)CCCN)CCC1NC(=O)c1cc(C2CC2)on1 (centres unmarked) [compound 161, N-(1-(4-aminobutanoyl)-3,3-dimethylpiperidin-4-yl)-5-cyclopropylisoxazole-3-carboxamide]",1.25
6,"N[C@H]1CC[C@H](C(=O)N2CCC(NC(=O)c3cc(C4CC4)on3)C[C@H]2c2ccccc2)CC1 (stereo partly drawn) [compound 162, N-((2S)-1-((1r,4S)-4-aminocyclohexane-1-carbonyl)-2-phenylpiperidin-4-yl)-5-cyclopropylisoxazole-3-carboxamide]",> 10
7,"N[C@H]1CC[C@H](C(=O)N2CCC(NC(=O)c3cc(C4CC4)on3)C[C@@H]2c2ccccc2)CC1 (stereo partly drawn) [compound 163, N-((2R)-1-((1r,4R)-4-aminocyclohexane-1-carbonyl)-2-phenylpiperidin-4-yl)-5-cyclopropylisoxazole-3-carboxamide]",7.17
8,"C[C@@H]1CC(NC(=O)c2cc(C3CC3)on2)CCN1C(=O)C(C)(C)C1CCNCC1 (stereo partly drawn) [compound 164, 5-cyclopropyl-N-((2R)-2-methyl-1-(2-methyl-2-(piperidin-4-yl)propanoyl)piperidin-4-yl)isoxazole-3-carboxamide]",5.91
9,"C[C@H]1CC(NC(=O)c2cc(C3CC3)on2)CCN1C(=O)C(C)(C)C1CCNCC1 (stereo partly drawn) [compound 165, 5-cyclopropyl-N-((2S)-2-methyl-1-(2-methyl-2-(piperidin-4-yl)propanoyl)piperidin-4-yl)isoxazole-3-carboxamide]",4.73
10,"CC1CC(CC(=O)N2CCC(NC(=O)c3cc(C4CC4)on3)C[C@H]2C)CCN1 (stereo partly drawn) [compound 166, 5-cyclopropyl-N-((2R)-2-methyl-1-(2-(2-methylpiperidin-4-yl)acetyl)piperidin-4-yl)isoxazole-3-carboxamide]",0.506
11,"C[C@@H]1CC(NC(=O)c2cc(C3CC3)on2)CCN1C(=O)CC1(O)CCNCC1 (stereo partly drawn) [compound 167, 5-cyclopropyl-N-((2R)-1-(2-(4-hydroxypiperidin-4-yl)acetyl)-2-methylpiperidin-4-yl)isoxazole-3-carboxamide]",0.911
12,"CCC1(C(=O)N2CCC(NC(=O)c3cc(C4CC4)on3)C[C@H]2C)CCNCC1 (stereo partly drawn) [compound 168, 5-cyclopropyl-N-((2R)-1-(4-ethylpiperidine-4-carbonyl)-2-methylpiperidin-4-yl)isoxazole-3-carboxamide]",3.18
13,"CCC1(C(=O)N2CCC(NC(=O)c3cc(C4CC4)on3)C[C@@H]2C)CCNCC1 (stereo partly drawn) [compound 169, 5-cyclopropyl-N-((2S)-1-(4-ethylpiperidine-4-carbonyl)-2-methylpiperidin-4-yl)isoxazole-3-carboxamide]",3.77
14,"C[C@@H]1CC(NC(=O)c2cc(C3CC3)on2)CCN1C(=O)C1(F)CCNCC1 (stereo partly drawn) [compound 170, 5-cyclopropyl-N-((2R)-1-(4-fluoropiperidine-4-carbonyl)-2-methylpiperidin-4-yl)isoxazole-3-carboxamide]",0.677
15,"C[C@@H]1C[C@H](NC(=O)c2cc(C3CC3)on2)CCN1C(=O)CCCN [compound 171, N-((2R,4R)-1-(4-aminobutanoyl)-2-methylpiperidin-4-yl)-5-cyclopropylisoxazole-3-carboxamide]",3.11
16,"C[C@@H]1C[C@H](NC(=O)c2cc(C3CC3)on2)CCN1C(=O)CC(O)CN (stereo partly drawn) [compound 172, N-((2R,4R)-1-(4-amino-3-hydroxybutanoyl)-2-methylpiperidin-4-yl)-5-cyclopropylisoxazole-3-carboxamide]",6.78
17,"C[C@H]1CC(NC(=O)c2cc(C3CC3)on2)CCN1C(=O)CC(O)CN (stereo partly drawn) [compound 173, N-((2S)-1-(4-amino-3-hydroxybutanoyl)-2-methylpiperidin-4-yl)-5-cyclopropylisoxazole-3-carboxamide]",5.26
